The test system of one data set is MDR1 (P-gp). Put plainly: Apparent permeability of the compound across MDCK cells expressing human MDR1 in absence of P-gp inhibitor GF120918. Format: ADME, cell-based, Canis lupus familiaris. The following applies: dog.
Data set [1] relates to Trypanosoma brucei brucei. Put plainly: Antitrypanosomal activity against Trypanosoma brucei brucei in nonCNS acute HAT mouse model assessed as cure rate. Format: functional.
Data set [2] deals with Trypanosoma brucei brucei. Put plainly: Antitrypanosomal activity against Trypanosoma brucei brucei. The data set is classed as functional, organism-based.
The subject of data set [3] is MDCK. Put plainly: Absorption quotient of the compound across MDCK cells expressing human MDR1. The data set is classed as ADME, cell-based, Canis lupus familiaris. The following applies: dog.
Data set [4] can be described thus: Half life in S9 microsomes. The data set is classed as ADME, subcellular, S9 fraction.
The nature of data set [5]: Aqueous solubility of the compound. Format: physicochemical. The following applies: buffer.
In a further data set the test system is L929. Kind of data set: Cytotoxicity against mouse L929 cells. The data set is classed as cell-based.
Data set [6] has as its system MDCK. Kind of data set: Permeability of the compound across MDCK cells expressing human MDR1. Format: ADME, cell-based, Canis lupus familiaris. The following applies: dog.
In data set [7] the test system is Trypanosoma brucei brucei. Kind of data set: Antitrypanosomal activity against Trypanosoma brucei brucei infected in nonCNS acute HAT mouse model assessed as cure rate at 20 mg/kg, po administered after 30 days. Format: functional.
Data set [8] relates to Trypanosoma brucei brucei. Put plainly: Antitrypanosomal activity against Trypanosoma brucei brucei infected in nonCNS acute HAT mouse model assessed as cure rate at 20 mg/kg, ip administered after 30 days. The following applies: route intraperitoneal. The data set is classed as functional.

This note sets out measurements from ChEMBL document CHEMBL1795343, “SAR of 2-amino and 2,4-diamino pyrimidines with in vivo efficacy against Trypanosoma brucei” (Bioorg Med Chem Lett, 2011).

In brackets after ≈: the same amount, converted by molar mass.

Usually Papp stands for the rate of passage across a membrane or cell layer, normalised by area and donor concentration. The IC50 is the concentration that gives 50% inhibition. Low readings indicate greater potency in that assay, high ones weaker potency in that assay. For the compound `COc1ccc(F)cc1C(=O)c1cnc(NC2CCN(S(C)(=O)=O)CC2)nc1`, the Papp in the data set on MDR1 (P-gp) stood at 56.1 ×10⁻⁶ cm/s. For the same compound, in data set [1], the Activity is on record as 66%. This compound had an IC50 in [2] of 570 nM. Also, the AQ in the data set on MDCK [3] came out at 0.18.

In general, half-life refers to the time needed for the level to fall by half in the phase considered. The solubility is how much of the substance goes into solution per volume. `COc1ccccc1C(=O)c1cnc(NC2CCN(C(=O)Cc3ccccc3)CC2)nc1N` displayed a half-life in data set [4] of 0.533 h. In addition, the values for the concentration for half-maximal inhibition (IC50) (in data set [2]; with L929) were 340 nM and 20000 nM, respectively. The compound further returned a solubility in data set [5] of 6 µM (≈ 2.67 µg/mL).

For `COc1ccccc1C(=O)c1cnc(NC2CCN(S(=O)(=O)Cc3ccccc3)CC2)nc1N`, the half-life in data set [4] came to 0.133 h. Also, the IC50 in data set [2] is 370 nM; with L929 it was 9100 nM. The compound further registered a solubility in data set [5] of 2 µM (≈ 0.963 µg/mL).

`COc1ccccc1C(=O)c1cnc(NC2CCN(C(=O)Nc3ccccc3)CC2)nc1N`: the Papp with MDR1 (P-gp) came out at 15.1 ×10⁻⁶ cm/s. For the same compound, in the data set on MDCK [6], the permeability result is on record as “impermeable”. In addition, the Activity in data set [7] and in [8] was 100% each time. For the same compound, the half-life in data set [4] turned out to be 1.6 h. Besides, the IC50 is 45 nM in data set [2] and 7500 nM with L929. In [5], this compound yielded a solubility of 25 µM (≈ 11.2 µg/mL). For the same compound, in the data set on MDCK [3], the AQ was 0.63.

In turn, `COc1ccccc1C(=O)c1cnc(NC2CCN(c3nc4ccccc4[nH]3)CC2)nc1N` had a half-life in data set [4] of 1.6 h. Moreover, the IC50 turned out to be 88 nM in [2] and 7600 nM in the data set with L929. In data set [5], this compound came in with a solubility of 13 µM (≈ 5.77 µg/mL).

Take `COc1ccccc1C(=O)c1cnc(NC2CCN(c3nc4ccccc4n3C)CC2)nc1N`: the half-maximal inhibitory concentration (IC50) in [2] is 1530 nM; with L929, > 22000 nM.

Regarding `COc1ccccc1C(=O)c1cnc(NC2CCN(c3nc4ccccc4s3)CC2)nc1N`, the half-life in [4] came to 0.667 h. Also, the IC50 in data set [2] was determined as 290 nM; with L929, 15000 nM.

Take `COc1ccccc1C(=O)c1cnc(NC2CCN(c3nccs3)CC2)nc1N`: the IC50 was 3100 nM in [2] and > 24000 nM in the data set with L929.

As for `COc1ccccc1C(=O)c1cnc(NC2CCN(C(=O)Nc3ccccc3F)CC2)nc1N`, the figures for the IC50 (in data set [2]; in the data set on L929) were 130 nM and 4100 nM, respectively.

Compound `COc1ccccc1C(=O)c1cnc(NC2CCN(C(=O)Nc3cccc(F)c3)CC2)nc1N` yielded a half-life in data set [4] of 2.82 h. In addition, the IC50 in [2] is 43 nM; in the data set on L929, 9300 nM. In data set [5], this compound showed a solubility of 13 µM (≈ 6.04 µg/mL).

Turning to `COc1ccccc1C(=O)c1cnc(NC2CCN(C(=O)Nc3ccc(F)cc3)CC2)nc1N`, in [4], the half-life was found to be 2.53 h. Further, the IC50 was 65 nM in data set [2] and 4600 nM in the data set on L929. For the same compound, the solubility in data set [5] worked out at 25 µM (≈ 11.6 µg/mL).

Turning to `COc1ccccc1C(=O)c1cnc(NC2CCN(C(=O)Nc3ccccc3C)CC2)nc1N`, the IC50 is 410 nM in data set [2] and 10000 nM in the data set on L929.

For the compound `COc1ccccc1C(=O)c1cnc(NC2CCN(C(=O)Nc3cccc(C)c3)CC2)nc1N`, the results for the IC50 (in [2]; with L929) were 110 nM and 7100 nM, respectively.

With `COc1ccccc1C(=O)c1cnc(NC2CCN(C(=O)Nc3ccc(C)cc3)CC2)nc1N`, the concentration for half-maximal inhibition (IC50) in data set [2] is 110 nM; in the data set on L929, 2900 nM.

`COc1ccccc1NC(=O)N1CCC(Nc2ncc(C(=O)c3ccccc3OC)c(N)n2)CC1`: the IC50 was found to be 190 nM in [2] and 1200 nM in the data set with L929.

Take `COc1cccc(NC(=O)N2CCC(Nc3ncc(C(=O)c4ccccc4OC)c(N)n3)CC2)c1`: the IC50 in [2] amounted to 290 nM; in the data set with L929, 6900 nM.

With `COc1ccc(NC(=O)N2CCC(Nc3ncc(C(=O)c4ccccc4OC)c(N)n3)CC2)cc1`, the IC50 in [2] was 360 nM; in the data set on L929, 3400 nM.

For `COc1ccccc1C(=O)c1cnc(N[C@H]2CC[C@@H](C(=O)Nc3ccccc3)CC2)nc1N`, the figures for the IC50 (in [2]; in the data set with L929) were > 11000 nM and > 22000 nM, respectively.

For the compound `COc1ccccc1C(=O)c1cnc(N[C@H]2CC[C@H](C(=O)Nc3ccccc3)CC2)nc1N`, the IC50 (in data set [2]; in the data set with L929) was 4600 nM in each case.

For the compound `COc1ccccc1C(=O)c1cnc(NCCCNC(=O)Nc2ccccc2)nc1N`, the IC50 was determined as 4500 nM in data set [2] and 11000 nM in the data set with L929.

In the case of `COc1ccccc1C(=O)c1cnc(N2CCN(C(=O)Nc3ccccc3)CC2)nc1N`, the IC50 in data set [2] was > 12000 nM; in the data set on L929, > 27000 nM.

As to `COc1ccccc1C(=O)c1cnc(NC2CCN(C(=O)Nc3ccccc3)C2)nc1N` (stereo not drawn), the figures for the IC50 (in data set [2]; in the data set with L929) were 5500 nM and 13000 nM, respectively.

Compound `CS(=O)(=O)N1CCC(Nc2ncc(C(=O)c3ccccc3)c(N)n2)CC1` returned an IC50 in data set [2] of 7400 nM.

In turn, `Cc1ccccc1C(=O)c1cnc(NC2CCN(S(C)(=O)=O)CC2)nc1N` came in with an IC50 in [2] of 1800 nM.

The compound `COc1cccc(C(=O)c2cnc(NC3CCN(S(C)(=O)=O)CC3)nc2N)c1` registered an IC50 in data set [2] of 10000 nM.

Regarding `COc1ccc(C(=O)c2cnc(NC3CCN(S(C)(=O)=O)CC3)nc2N)cc1`, the IC50 in data set [2] was > 12000 nM.

In [2], `COc1ccc(F)cc1C(=O)c1cnc(NC2CCN(C(=O)Nc3ccccc3)CC2)nc1N` yielded an IC50 of 30 nM.

In data set [2], `CCc1ccccc1C(=O)c1cnc(NC2CCN(C(=O)Nc3ccccc3)CC2)nc1N` displayed an IC50 of 170 nM.

Compound `CCOc1ccccc1C(=O)c1cnc(NC2CCN(C(=O)Nc3ccccc3)CC2)nc1N` gave an IC50 in data set [2] of 260 nM.

On to `COc1ccccc1C(=O)c1cnc(NC2CCN(C(=O)Nc3ccccc3)CC2)nc1`, for which the Papp in the data set on MDR1 (P-gp) amounted to 39.8 ×10⁻⁶ cm/s. In addition, the Activity in data set [1] is 33%. The half-life in [4] is 2.8 h. In [2], the IC50 amounted to 330 nM. In the data set on MDCK [3], this compound had an AQ of 0.14.

Consider `COc1ccccc1C(=O)c1cnc(NC2CCN(C(=O)Nc3ccccc3)CC2)nc1C`, for which the half-life in data set [4] was 1.22 h. Moreover, half-maximal inhibition in [2] (IC50) was put at 1600 nM.

For `COc1ccccc1C(=O)c1cnc(NC2CCN(c3nc4ccccc4[nH]3)CC2)nc1`, the Papp in the data set on MDR1 (P-gp) amounted to 11.4 ×10⁻⁶ cm/s. This compound yielded a half-life in data set [4] of 0.75 h. In addition, the IC50 in data set [2] was 310 nM. This compound also had an AQ in the data set with MDCK [3] of 0.77.

As for `COc1ccccc1C(=O)c1cnc(NC2CCN(S(C)(=O)=O)CC2)nc1`, the half-life in data set [4] stood at 3.72 h. Further, the half-inhibitory concentration (IC50) in [2] amounted to 1800 nM.

Take `COc1ccccc1C(=O)c1cnc(NC2CCN(S(C)(=O)=O)CC2)nc1C`: the half-life in data set [4] turned out to be 7.23 h. For the same compound, the IC50 in data set [2] was > 12000 nM.

As to `COc1ccccc1C(=O)c1cnc(NC2CCN(S(C)(=O)=O)CC2)nc1N`, in the data set on MDCK [6], the permeability result is reported as “impermeable”. For the same compound, the Activity in data set [7] and in data set [8] was 100% each time. In data set [4], the half-life was > 5.83 h. Moreover, the IC50 in [2] was found to be 660 nM; in the data set on L929 it was 11000 nM. In addition, the solubility in data set [5] was determined as 50 µM (≈ 20.3 µg/mL).

Take `COc1ccccc1C(=O)c1cnc(NC2CCN(C(C)=O)CC2)nc1N`: the figures for the IC50 (in [2]; in the data set with L929) were 3300 nM and > 27000 nM, respectively.

As for `COc1ccc(F)cc1C(=O)c1cnc(NC2CCN(S(C)(=O)=O)CC2)nc1N`, the Papp in the data set with MDR1 (P-gp) amounted to 27.2 ×10⁻⁶ cm/s. Besides, the permeability result in the data set on MDCK [6] is “impermeable”. Besides, the Activity in data set [7] and in [8] was 100% each time. For the same compound, the half-life in data set [4] was > 5.83 h. Further, the IC50 in data set [2] came to 170 nM. For the same compound, the AQ in the data set with MDCK [3] turned out to be 0.49.

`COc1ccccc1C(=O)c1cnc(NC2CCNCC2)nc1N`: the IC50 in data set [2] was > 14000 nM.
